Test results from PMC7495481, “Sequence specificity analysis of the SETD2 protein lysine methyltransferase and discovery of a SETD2 super-substrate” (Communications Biology, 2020).

Biological target: T1, SETD2 (Homo sapiens, UniProt Q9BYW2)
T1 construct: SETD2 catalytic SET domain (amino acids 1347–1711, UniProt No: Q9BYW2); made in house; host or cells: E. coli
T1 sequence (Q9BYW2 1347-1711): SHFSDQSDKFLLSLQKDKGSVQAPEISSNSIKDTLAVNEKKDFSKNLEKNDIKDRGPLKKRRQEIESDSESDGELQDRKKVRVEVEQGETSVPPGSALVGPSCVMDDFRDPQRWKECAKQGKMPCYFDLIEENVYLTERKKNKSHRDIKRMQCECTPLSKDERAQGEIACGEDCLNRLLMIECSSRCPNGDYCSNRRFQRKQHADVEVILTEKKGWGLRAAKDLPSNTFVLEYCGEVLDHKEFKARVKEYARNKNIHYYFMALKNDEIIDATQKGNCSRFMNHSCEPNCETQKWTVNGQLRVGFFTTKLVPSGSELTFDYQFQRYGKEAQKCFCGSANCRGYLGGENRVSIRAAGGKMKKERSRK
Test: Time courses of methylation of ssK36 and H3K36 compared (initial slopes)
Assay type: biochemical
Details: 20 µM substrate, 6 µM enzyme; two experiments, average ± SEM
Excerpt: Fig. 2 Design of an optimized SETD2 peptide substrate and analysis of its methylation. a Variants of the H3K36 (29–43) peptide containing up to five mutations (Supplementary Table 1) were synthesized on a cellulose membrane and methylated by SETD2. The signal of the transferred radioactive methyl groups was detected by autoradiography. Spots A1 and B15 contain the H3K36 sequence, A2 and B16 the H3K36A peptide. Two films with different exposure times are shown to visualize weaker methylated spots as well. b Comparison of the methylation of purified super-substrate (ssK36) and the H3K36 peptides. […] Methylation reactions were conducted using 20 µM peptide and 6 µM enzyme. […]
The H3K36 (27–43) and the H3K36M (27–43) peptides were purchased from Intavis AG (Köln, Germany) and the ssK36 peptide (29–43) and the ssK36M peptide (29–43) were from Innovative Peptide Solutions (Berlin, Germany). […] The signals of the transferred radioactive labeled methyl groups were detected by autoradiography using a hyperfilm^TM high performance autoradiography film (GE Healthcare) at −80 °C in the dark. […]
Time courses of ssK36 methylation were analyzed by fitting to an exponential reaction progress curve (Eq. 1). Initial rates of single turnover reactions were determined using the first derivative of eq. […]

Sequence: APRFGGVKRPNRYRP [ssK36, super-substrate peptide with four amino acid exchanges (A31R, T32F, K37R, H39N)]
- fold higher initial slope for ssK36 methylation vs H3K36: 290 ± 70 fold
